# Reference: patent US12150945B2, “Liver disease” (Lipocine Inc., priority 2018, dated 2024)
# Legend:
# Type in all cases: in vivo, human
# [1] = test system: C-Reactive Protein; assay: C-Reactive Protein, change from baseline to end of study, trial of Example 1; details: Safety Set; subjects with CRP values > 95.23 excluded
# [2] = Serum DHT, DHT/T ratio, E2 and calculated free T, hormone assessment in trial of Example 1; details: for ratio of DHT/T based on Cavg0-24 h / ratio of DHT/T based on Cmax: normal range 0.05 to 0.33
# Experimental: (§1) Subjects were randomized in a 2:1 ratio to oral testosterone undecanoate or T gel. oral testosterone undecanoate subjects started at a dose of 225 mg TU (“testosterone undecanoate”) taken twice daily (total daily dose: 450 mg TU) every 12 hours. For optimal lymphatic absorption oral testosterone undecanoate must be administered with a meal. Therefore, subjects were instructed to administer oral testosterone undecanoate after a standard meal (defined as a meal consisting of 800 to 1400 calories with approximately 20% to 35% fat content). The oral testosterone undecanoate dose was titrated at Weeks 4 and 8, if necessary, based on results of intensive 24-hour PK blood sampling obtained at Weeks 3 and 7, respectively. Oral testosterone undecanoate subjects stayed at the clinic overnight during each intensive PK blood sampling period. […] Oral testosterone undecanoate dose levels permitted during the study were 150 mg BID, 225 mg BID, and 300 mg BID. Data collected during an intensive 24-hour PK sampling overnight stay at Week 13 were used for efficacy analysis; dose was not adjusted at this visit. Additional outpatient visits were conducted at Weeks 26, 39, and 52 during which single blood draws were performed 3 to 6 hours post morning dose. Dose was not adjusted during these visits.
# (§2) Serum levels of T, TU, dihydrotestosterone (DHT), dihydrotestosterone undecanoate (DHTU), and estradiol (E2) were evaluated in oral testosterone undecanoate treated subjects. […] Sex hormone binding globulin (SHBG) was evaluated in data from all subjects. Serum T concentrations at screening were measured using chemiluminescence immunoassay kits. Hormone assays for pharmacokinetic assessment were analyzed at PPD Bioanalytical Laboratory in Richmond, Virginia Serum samples were analyzed for T, DHT, TU, DHTU, and E2 using a validated liquid chromatography-tandem mass spectrometry (LC-MS/MS) assay.
# [3] = Serum testosterone pharmacokinetics (24-hour PK sampling, LC-MS/MS), phase 3 oral testosterone undecanoate trial of Example 1; details: for Average serum T levels: single blood draw 3 to 6 hours post morning dose
# Experimental: (§3) Oral testosterone therapy was evaluated in a multicenter, phase 3, randomized, open-label, active controlled, parallel-group study that included a 13-week efficacy phase and a 52-week safety phase. An active arm in which subjects received T gel was included for safety evaluation only.
# Males 18 through 80 years old with a documented diagnosis of primary hypogonadism (congenital or acquired) or hypogonadotropic hypogonadism (congenital or acquired) and with morning serum T<300 ng/dL based on 2 consecutive blood samples obtained between 0600 and 1000 on 2 separate days at approximately the same time were eligible to participate. Subjects were either naïve to T therapy or completed an adequate washout of T therapy (eg, 12 weeks after intramuscular androgen injections excluding TU injections which required a longer waiting period; 4 weeks after topical or buccal androgens; and 3 weeks after oral androgens). Exclusion criteria included abnormal prostate digital rectal examination with palpable nodule(s) or International Prostate Symptom Score (IPSS)>19 points; body mass index ≥38 kg/m^2, clinically significant laboratory values (baseline hemoglobin <11.5 or >16.5 g/dL, hematocrit <35% or >54%, serum transaminases >2.5 times upper limit of normal, serum bilirubin >2.0 mg/dL, creatinine >2.0 mg/dL, prostate specific antigen [PSA]>2 ng/mL, prolactin >17.7 ng/mL); history of seizures or convulsions; any surgical procedure that might interfere with gastrointestinal motility, pH, or absorption; stroke or myocardial infarction within 5 years; current or suspected prostate or breast cancer; severe, untreated, obstructive sleep apnea; long QT syndrome or unexplained sudden death in first-degree relative; concurrent medication use that could impact absorption, distribution, metabolism, or excretion of TU or place subject at risk for treatment with T; and dose changes of antihypertensive, lipid-lowering, or hypoglycemic agents within previous 3 months.
# as §1, §2
# [4] = test system: ALT, GGT, BUN, total cholesterol, LDL-C, triglyceride; assay: Liver Fat Study: normalization of labs (ALT, GGT, BUN, total cholesterol, LDL-C, triglyceride) at end of study (Example 6)
# Experimental: (§4) This example is part of an ongoing Liver Fat Study which is an open-label, multi-center, single arm study evaluating LPCN 1144 treatment (e.g., androgen therapy, testosterone therapy, oral testosterone ester, or 225 mg testosterone undecanoate orally) in a cohort of 36 hypogonadal males (NCT03868059). Subjects with at least 10% baseline liver fat were evaluated which is indicative of subjects with NAFLD with the potential to have NASH. Interim results of seven of the nine subjects in the Liver Fat Study with baseline liver fat of at least 10% are presented as two subjects were unable to schedule an eight-week MRI-PDFF visit. Baseline mean liver fat of these seven subjects was 21.0%.
# (§5) An MRI-PDFF study of 36 male hypogonadal subjects (having 2 morning testosterone levels of 300 ng/dL or less) was performed as part of an ongoing trial. Basic baseline labs including liver function tests (e.g., AST & ALT) and serum triglycerides were collected and analyzed. It was found by non-linear regression, that BMI (ALT, AST, serum Triglyceride) was associated with liver fat (P<0.006). It was found by non-linear regression, that serum triglyceride levels (obesity, hypertension, type 2 diabetes) were associated with liver fat (P<0.006).
# [5] = test system: Lipoprotein-associated phospholipase A2; assay: Lipoprotein-associated phospholipase A2, change from baseline to end of study, trial of Example 1
# Experimental: as §3, §1
# (§6) T gel (ANDROGEL®) (testosterone gel for topical use) 1.62%, AbbVie, Chicago, Illinois, US) was supplied in non-aerosol, metered dose pumps that deliver 20.25 mg T per complete pump actuation. T gel was dosed according to product labeling. Subjects receiving T gel completed outpatient visits at Weeks 2 and 4 with single blood draws to determine titration and at Weeks 3 and 5 for dose changes, if necessary. They also completed an outpatient visit at Week 7 for safety assessments and at Weeks 13, 26, 39 and 52 during which single blood samples were obtained 3 to 6 hours after the morning dose. Dose was not adjusted during these visits. Overnight clinic stays were not required for T gel subjects.
# (§7) Safety endpoints included adverse events (AEs), physical examination findings, vital signs, electrocardiograms (ECGs), and clinical laboratory tests. AEs were classified using the Medical Dictionary for Regulatory Activities (Version 16.1). Safety endpoints were summarized using descriptive statistics. Lab parameters were evaluated using two sample t-tests comparing change from baseline to end of study (EOS) across oral testosterone undecanoate and T gel subjects with p-values <0.05 considered statistically significant.
# [6] = test system: lipids; assay: Lipid parameters (HDL, LDL, total cholesterol, triglycerides, non-HDL cholesterol), change from baseline to end of study, trial of Example 1
# Experimental: as §3, §1, §6, §7
# [7] = test system: liver fat; assay: Liver Fat Study: liver fat by MRI-PDFF in hypogonadal males treated with LPCN 1144 (Example 6); details: 16 weeks of treatment; baseline liver fat of 8% or greater
# Experimental: In an a prospective design open-label, multi-center, single arm ‘Liver Fat Study’ evaluating LPCN 1144 (oral testosterone undecanoate) treatment in hypogonadal patients, baseline % liver fat was assessed via MRI-PDFF in a subset of study patients (N=36).
# as §4, §5
# [8] = 4th quartile patients based on lab parameter level, 1 Year Oral TU Study
# [9] = Safety Set, baseline to end of study
smiles,measurement,setting,value
"CCCCCCCCCCC(=O)O[C@H]1CC[C@H]2[C@@H]3CCC4=CC(=O)CC[C@]4(C)[C@H]3CC[C@]12C [oral testosterone undecanoate, testosterone undecanoate]","C-Reactive Protein, mean (SD) change from baseline to end of study",[1],−4.68 (30.94) nmol/L
same,ratio of DHT/T based on Cavg0-24 h,[2]; Week 3,0.24
same,ratio of DHT/T based on Cmax,[2]; Week 3,0.16
same,ratio of DHT/T based on Cavg0-24 h,[2]; Week 7,0.26
same,ratio of DHT/T based on Cmax,[2]; Week 7,0.18
same,ratio of DHT/T based on Cavg0-24 h,[2]; Week 13,0.26
same,ratio of DHT/T based on Cmax,[2]; Week 13,0.18
same,Calculated free T levels,[2]; normal values 9 to 30 ng/dL,consistently within normal values
same,serum T Cavg0-24 h,[3]; Week 13,446 ng/dL
same,serum T Cmax,[3]; Week 13,1134 ng/dL
same,subjects with serum T Cavg0-24 h between 300 and 1140 ng/dL,"[3]; Week 13, 95% lower bound CI: 81.7%, met predefined efficacy criteria",87.4%
same,Average serum T levels,[3]; Week 26,481 ± 371 ng/dL
same,Average serum T levels,[3]; Week 39,543 ± 438 ng/dL
same,Average serum T levels,[3]; Week 52,538 ± 545 ng/dL
same,normalization rate for LDL-C,[4],50%
same,normalization rate for total cholesterol,[4],29%
same,normalization rate for triglyceride,[4],21%
same,subjects with BUN normalization,[4],60%
same,subjects with above normal GGT levels who ended the study with normal GGT levels,[4],0%
same,subjects with above normal ALT levels who ended the study with normal ALT levels,[4]; mean baseline ALT 48.7,100%
same,"Lp-PLA2, mean change from baseline",[5]; [8],-47.8 ng/mL
same,"Lp-PLA2, mean change from baseline, %",[5]; [8],−17.1%
same,"Lp-PLA2, mean (SD) change from baseline to end of study",[5]; [9],−9.6 (42.07) ng/mL
same,"Lipoprotein-associated phospholipase A2, baseline to EOS",[5]; difference in change between groups not significant,decreased significantly
same,"LDL-C, mean change from baseline",[6]; [8],-10.2 mg/dL
same,"LDL-C, mean change from baseline, %",[6]; [8],−6.1%
same,"Non-HDL-C, mean change from baseline",[6]; [8],-18.2 mg/dL
same,"Non-HDL-C, mean change from baseline, %",[6]; [8],−8.7%
same,"Total Cholesterol, mean change from baseline",[6]; [8],-20.2 mg/dL
same,"Total Cholesterol, mean change from baseline, %",[6]; [8],−7.9%
same,"Triglycerides, mean change from baseline",[6]; [8],-85.1 mg/dL
same,"Triglycerides, mean change from baseline, %",[6]; [8],−19.0%
same,"Cholesterol, mean (SD) change from baseline to end of study",[6]; [9],-0.24 (0.82) mmol/L
same,"HDL cholesterol, mean (SD) change from baseline to end of study",[6]; [9],−0.14 (0.22) mmol/L
same,"LDL cholesterol, mean (SD) change from baseline to end of study",[6]; [9],−0.05 (0.66) mmol/L
same,"Triglyceride, mean (SD) change from baseline to end of study",[6]; [9],−0.18 (1.14) mmol/L
same,Serum HDL cholesterol decrease at EOS,[6]; compared with T gel,significantly larger decrease
same,HDL cholesterol: subjects with a shift from normal at baseline to low at EOS,[6]; in vivo,19.0%
same,"other lipid parameters, difference between oral testosterone undecanoate and T gel",[6]; lipid parameters other than HDL cholesterol,No statistically significant differences
same,Mean relative liver fat % change,[7],−42%
